The values below come from patent publication US7696246B2 (Ligand Pharmaceuticals Incorporated, priority 1999, dated 2010).

Read-outs that look alike come from different tables or passages of the source.

The EC50 is the concentration at which the effect is half-maximal. Read a low EC50 as an effect from little substance. What is called Ki is the equilibrium dissociation constant of an inhibitor or competing ligand from its target.

Experiment [1] addresses T1, human AR (Homo sapiens, UniProt P10275).
T1 sequence (P10275 1-920): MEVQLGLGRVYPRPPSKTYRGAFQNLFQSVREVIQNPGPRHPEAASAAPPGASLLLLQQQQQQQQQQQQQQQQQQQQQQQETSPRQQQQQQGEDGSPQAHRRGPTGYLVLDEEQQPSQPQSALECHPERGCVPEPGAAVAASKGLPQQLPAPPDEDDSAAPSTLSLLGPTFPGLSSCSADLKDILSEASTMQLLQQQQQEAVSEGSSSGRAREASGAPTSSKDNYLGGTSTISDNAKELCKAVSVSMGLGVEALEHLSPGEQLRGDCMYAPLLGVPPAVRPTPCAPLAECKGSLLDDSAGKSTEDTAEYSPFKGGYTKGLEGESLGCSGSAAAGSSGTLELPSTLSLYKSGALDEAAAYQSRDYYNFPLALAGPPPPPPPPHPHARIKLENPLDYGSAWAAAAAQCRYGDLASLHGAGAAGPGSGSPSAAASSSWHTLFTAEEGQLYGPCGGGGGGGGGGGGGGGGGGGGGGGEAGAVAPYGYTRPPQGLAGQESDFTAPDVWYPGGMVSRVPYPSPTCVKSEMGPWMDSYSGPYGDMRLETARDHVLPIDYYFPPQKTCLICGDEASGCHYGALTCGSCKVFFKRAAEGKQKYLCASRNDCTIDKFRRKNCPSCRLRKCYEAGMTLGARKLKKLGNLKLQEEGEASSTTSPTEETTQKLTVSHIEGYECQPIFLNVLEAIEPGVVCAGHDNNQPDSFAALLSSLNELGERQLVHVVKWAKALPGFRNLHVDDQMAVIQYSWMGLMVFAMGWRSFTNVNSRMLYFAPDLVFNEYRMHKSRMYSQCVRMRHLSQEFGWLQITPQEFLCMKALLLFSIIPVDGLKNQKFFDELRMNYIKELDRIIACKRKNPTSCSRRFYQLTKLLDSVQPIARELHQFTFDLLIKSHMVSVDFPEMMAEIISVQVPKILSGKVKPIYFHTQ
Description: Co-transfection assay, AR agonist activity (CV-1 cells, MTV-LUC reporter). It counts as cell-based. The conditions noted are these: CV-1 cells; for EC50: agonist potency EC50; for AR Agonist CV-1 Cells Efficacy (%): percent maximal response relative to reference agonist DHT.

Experiment [2] has as its target T1, human AR. The experiment is described as follows: Co-transfection assay, AR antagonist activity (CV-1 cells, in presence of DHT). It counts as cell-based. Particulars: for AR Antagonist CV-1 Cells Efficacy (%): percent maximal inhibition, DHT at its EC50.
For experiment [3], the target named is T1, human AR. Description: AR whole cell competitive binding assay (COS-1 cells, 3H-DHT). The conditions noted are these: 1 nM 3H-DHT, Cheng-Prusoff.
Description: AR Binding: For the whole cell binding assay, COS-1 cells in 96-well microtiter plates containing DMEM-10% FBS were transfected as described above with the following plasmid DNA: pRShAR (2 ng/well), pRS-β-Gal (50 ng/well) and pGEM (48 ngcwell). Six hours after transfection, media was removed, the cells were washed with PBS and fresh media was added. The next day, the media was changed to DMEM-serum free to remove any endogenous ligand that might be complexed with the receptor in the cells.
Three replicates were used for each sample. […] The remaining media was removed, the cells were washed three times with PBS to remove unbound ligand, and cells were lysed with a Triton X-100-based buffer.
For the saturation analyses, the difference between the total binding and the nonspecific binding, normalized by the β-Gal rate, was defined as specific binding. […] The Ki values were determined by application of the Cheng-Prusoff equation to the IC50 values, where:
After correcting for non-specific binding, IC50 values were determined. […] The IC50 value was determined graphically from a log-logit plot of the data. The Ki values were determined by application of the Cheng-Prusoff equivuation to the IC50 values, the labeled ligand concentration and the Kd of the labeled ligand.
[4] abbreviates: read-out: AR Antagonist CV-1 Cells Potency.

As for `CC(C)Nc1ccc2c(C(F)(F)F)c(F)c(=O)[nH]c2c1` [Compound 535, 3-Fluoro-7-isopropylamino-4-trifluoromethyl-2(1H)-quinolinone], the EC50 at human AR [1] was above 10000 nM. For the same molecule, the “AR Antagonist CV-1 Cells Efficacy (%)” value on human AR [2] is reported as 76%. Further, at human AR [2] (setting [4]), the IC50 is 60 nM. For the same molecule, on human AR [3], the Ki is above 1000 nM.

In turn, `O=c1cc(C(F)(F)F)c2cc(-c3ccccc3)ccc2[nH]1` [Compound 764, 4-Trifluoromethyl-6-phenyl-2(1H)-quinolinone] displayed an EC50 on human AR [1] above 10000 nM. Moreover, the “AR Antagonist CV-1 Cells Efficacy (%)” value at human AR [2] was 87%. Further, the IC50 on human AR [2] (setting [4]) turned out to be 30 nM. At human AR [3], this molecule showed a Ki of 16 nM.

Turning to `O=c1cc(C(F)(F)F)c2cc(N(CC(F)(F)C(F)(F)F)CC(F)(F)C(F)(F)F)ccc2[nH]1` [Compound 224, 6-(bis-2,2,3,3,3-Pentafluoropropyl)amino-4-trifluoromethyl-2(1H)-quinolinone], on human AR [1], the EC50 worked out at 41 nM and the “AR Agonist CV-1 Cells Efficacy (%)” value amounted to 108%. Besides, the “AR Antagonist CV-1 Cells Efficacy (%)” value on human AR [2] is “na (na = not active (i.e. efficacy of <20 and potency of >10,000))”. Besides, the IC50 on human AR [2] (setting [4]) is above 10000 nM. Further, on human AR [3], the inhibitory constant (Ki) stood at 206 nM.

At human AR [1], `Cc1cccc(-c2ccc3[nH]c(=O)cc(C(F)(F)F)c3c2)c1` [Compound 738, 4-Trifluoromethyl-6-(3-methylphenyl)-2(1H)-quinolinone] came in with an EC50 above 10000 nM. The “AR Antagonist CV-1 Cells Efficacy (%)” value on human AR [2] worked out at 91%. Also, the IC50 on human AR [2] (setting [4]) was 27 nM. At human AR [3], this molecule registered a Ki above 1000 nM.

Molecule `O=c1cc(C(F)(F)F)c2cc(C3=CCCC3)ccc2[nH]1` [Compound 632, 6-Cyclopentenyl-4-trifluoromethyl-2(1H)-quinolinone] came in with an EC50 on human AR [1] above 10000 nM. In addition, the “AR Antagonist CV-1 Cells Efficacy (%)” value on human AR [2] is recorded as 75%. Moreover, the IC50 at human AR [2] (setting [4]) was determined as 36 nM. On human AR [3], this molecule returned a Ki of 112 nM.

On to `CCCCC1(O)C=C(c2ccc3c(c2)C(C)(C)OC(=O)N3)CCC1` (racemic) [Compound 694, (±)-6-(3-Butyl-3-hydroxy-1-)cyclohexenyl-1,4-dihydro-4,4-dimethyl-1,3-benzo[d]oxazin-2-one], for which, on human AR [1], the midpoint of the response, the EC50, lay at 935 nM and the “AR Agonist CV-1 Cells Efficacy (%)” value turned out to be 25%. The “AR Antagonist CV-1 Cells Efficacy (%)” value on human AR [2] is given as 90%. For the same molecule, the IC50 on human AR [2] (setting [4]) was 64 nM. For the same molecule, the Ki on human AR [3] is above 1000 nM.

Regarding `CC1(C)CC2CC(C)(CN2c2ccc3[nH]c(=O)cc(C(F)(F)F)c3c2)C1` (racemic) [Compound 350, (±)-6-(1,3,3-Trimethyl-6-azabicyclo[3.2.1]octanyl-6-)-4-trifluoromethyl-2(1H)-quinolinone], at human AR [1], it took 29 nM to reach a half-maximal effect (EC50) and the “AR Agonist CV-1 Cells Efficacy (%)” value stood at 73%. Also, the “AR Antagonist CV-1 Cells Efficacy (%)” value at human AR [2] is “na (na = not active (i.e. efficacy of <20 and potency of >10,000))”. Besides, the IC50 at human AR [2] (setting [4]) was above 10000 nM. Besides, the Ki at human AR [3] worked out at 165 nM.

For the molecule `CC(C)CN(c1ccc2[nH]c(=O)cc(C(F)(F)F)c2c1)C(C)C(F)(F)F` (racemic) [Compound 290, (±)-6-(N-Isobutyl-N-2,2,2-trifluoroisopropyl)amino-4-trifluoromethyl-2(1H)-quinolinone], on human AR [1], the midpoint of the response, the EC50, lay at 32 nM and the “AR Agonist CV-1 Cells Efficacy (%)” value came to 37%. Moreover, the “AR Antagonist CV-1 Cells Efficacy (%)” value on human AR [2] stood at 50%. At human AR [2] (setting [4]), the IC50 was 50 nM. Moreover, the Ki on human AR [3] is above 1000 nM.

Consider `CCCN(CC1CC1)c1ccc2[nH]c(=O)cc(C(F)(F)F)c2c1` [Compound 254, 6-(N-Propyl-N-cyclopropylmethyl)amino-4-trifluoromethyl-2(1H)-quinolinone], for which, on human AR [1], the EC50 was determined as 0.9 nM and the “AR Agonist CV-1 Cells Efficacy (%)” value worked out at 78%. Moreover, the “AR Antagonist CV-1 Cells Efficacy (%)” value at human AR [2] was “na (na = not active (i.e. efficacy of <20 and potency of >10,000))”. Also, the IC50 at human AR [2] (setting [4]) is above 10000 nM. Further, the affinity on human AR [3], expressed as Ki, was 12 nM.

Take `Cn1c(=O)cc(C(F)(F)F)c2cc(N(CC(F)(F)F)CC(F)(F)F)ccc21` [Compound 297, 1-Methyl-6-(bis-2,2,2-trifluoroethyl)amino-4-trifluoromethyl-2(1H)-quinolinone]: at human AR [1], the half-maximal effective concentration (EC50) came out at 22 nM and the “AR Agonist CV-1 Cells Efficacy (%)” value was 43%. For the same molecule, the “AR Antagonist CV-1 Cells Efficacy (%)” value on human AR [2] is recorded as 43%. Besides, the IC50 at human AR [2] (setting [4]) stood at 3.2 nM. Moreover, on human AR [3], the Ki was found to be 58 nM.

As to `C[C@@H]1CC[C@H](C)N1c1ccc2[nH]c(=O)cc(C(F)(F)F)c2c1` [Compound 328, 6-(2,5-cis-Dimethyl-1-pyrrolidino)-4-trifluoromethyl-2(1H)-quinolinone], on human AR [1], the response was half-maximal at 1.7 nM (EC50) and the “AR Agonist CV-1 Cells Efficacy (%)” value is given as 93%. In addition, the “AR Antagonist CV-1 Cells Efficacy (%)” value on human AR [2] is “na (na = not active (i.e. efficacy of <20 and potency of >10,000))”. Further, the IC50 at human AR [2] (setting [4]) was above 10000 nM. Also, affinity at human AR [3] was put at a Ki of 48 nM.

For `CS(=O)(=O)N(CC(F)(F)F)c1ccc2[nH]c(=O)cc(C(F)(F)F)c2c1` [Compound 295, 6-(N-2,2,2-Trifluoroethyl-N-methylsufonyl)amino-4-trifluoromethyl-2(1H)-quinolinone], on human AR [1], the EC50 was found to be 50 nM and the “AR Agonist CV-1 Cells Efficacy (%)” value turned out to be 30%. In addition, the “AR Antagonist CV-1 Cells Efficacy (%)” value at human AR [2] was 49%. In addition, the IC50 at human AR [2] (setting [4]) turned out to be 3.6 nM. The molecule further came in with a Ki on human AR [3] of 86 nM.

With `C=CCN(CC1CC1)c1ccc2[nH]c(=O)cc(C(F)(F)F)c2c1` [Compound 285, 6-(N-Allyl-N-cyclopropylmethyl)amino-4-trifluoromethyl-2(1H)-quinolinone], on human AR [1], the EC50 turned out to be 1 nM and the “AR Agonist CV-1 Cells Efficacy (%)” value is given as 111%. For the same molecule, the “AR Antagonist CV-1 Cells Efficacy (%)” value at human AR [2] was “na (na = not active (i.e. efficacy of <20 and potency of >10,000))”. The IC50 on human AR [2] (setting [4]) is above 10000 nM. The affinity at human AR [3], expressed as Ki, was 6.2 nM.

In the case of `O=c1cc(C(F)(F)F)c2cc(N3CCCCC3)ccc2[nH]1` [Compound 311, 6-(1-Piperidinyl)-4-trifluoromethyl-2(1H)-quinolinone], at human AR [1], a half-maximal response (EC50) required 143 nM and the “AR Agonist CV-1 Cells Efficacy (%)” value is reported as 42%. The “AR Antagonist CV-1 Cells Efficacy (%)” value on human AR [2] is on record as 38%. Also, at human AR [2] (setting [4]), the IC50 was found to be 13 nM. In addition, the Ki at human AR [3] came to 12 nM.

`CCC(CC)c1ccc2[nH]c(=O)cc(C(F)(F)F)c2c1` [Compound 647, 6-(1-Ethylpropyl)-4-trifluoromethyl-2(1H)-quinolinone]: at human AR [1], the EC50 was found to be 233 nM and the “AR Agonist CV-1 Cells Efficacy (%)” value is 42%. Also, the “AR Antagonist CV-1 Cells Efficacy (%)” value on human AR [2] is listed as 64%. Moreover, on human AR [2] (setting [4]), the IC50 turned out to be 31 nM. For the same molecule, the affinity at human AR [3] corresponds to a Ki of 81 nM.

For the molecule `C[C@@H]1C=C[C@H](C)N1c1ccc2[nH]c(=O)cc(C(F)(F)F)c2c1` [Compound 332, 6-(2,5-cis-Dimethyl-1-pyrrolino)-4-trifluoromethyl-2(1H)-quinolinone], on human AR [1], the midpoint of the response, the EC50, lay at 14 nM and the “AR Agonist CV-1 Cells Efficacy (%)” value was 121%. Also, the “AR Antagonist CV-1 Cells Efficacy (%)” value on human AR [2] was “na (na = not active (i.e. efficacy of <20 and potency of >10,000))”. The IC50 at human AR [2] (setting [4]) is above 10000 nM. The affinity on human AR [3] corresponds to a Ki of 19 nM.

As to `O=c1cc(C(F)(F)F)c2cc(N3CCCCC3CCOCc3ccccc3)ccc2[nH]1` (racemic) [Compound 445, (±)-6-(2-Benzyloxyethyl-1-piperidino)-4-trifluoromethyl-2(1H)-quinolinone], at human AR [1], the EC50 came to 26 nM and the “AR Agonist CV-1 Cells Efficacy (%)” value is 104%. Further, on human AR [2], the IC50 is above 10000 nM; the “AR Antagonist CV-1 Cells Efficacy (%)” value is “na (na = not active (i.e. efficacy of <20 and potency of >10,000))”. Further, affinity on human AR [3] was put at a Ki of 5.8 nM.
